Reference: paper PMC10131537, “Degradation of neurodegenerative disease-associated TDP-43 aggregates and oligomers via a proteolysis-targeting chimera” (Journal of Biomedical Science, 2023)

Molecular target: T1, cereblon (CRBN) (Homo sapiens, UniProt Q96SW2)
T1 construct: GST-tagged human cereblon/DDB1, co-expressed by baculovirus; with DDB1
Test: competitive TR-FRET binding assay versus XL-665-labelled thalidomide

Compound `CN(C)c1ccc(-c2nc3ccc(OCCOCCOCCNc4cccc5c4C(=O)N(C4CCC(=O)NC4=O)C5=O)cc3s2)cc1` (stereo not shown) [compound 2, 4-((2-(2-(2-((2-(4-(Dimethylamino)phenyl)benzo[d]thiazol-6-yl)oxy)ethoxy)ethoxy)ethyl)amino)-2-(2,6-dioxopiperidin-3-yl)isoindoline-1,3-dione] has an EC50 of 600 nM.
